In patent publication US9505762B2, “Purine derivatives as CB2 receptor agonists” (Hoffmann-La Roche Inc., priority 2013, dated 2016):

Tests used:
[1] = biological target: human CB2 receptors (Homo sapiens (Human), UniProt P34972); assay: functional cAMP assay, CB2; type: cell-based; conditions: CHO cells expressing human CB2
Description: (§1) The growth medium was exchanged with Krebs Ringer Bicarbonate buffer with 1 mM IBMX and incubated at 30° C. for 30 min. Compounds were added to a final assay volume of 100 μl and incubated for 30 min at 30° C. Using the cAMP-Nano-TRF detection kit the assay (Roche Diagnostics) was stopped by the addition of 50 μl lysis reagent (Tris, NaCl, 1.5% Triton X100, 2.5% NP40, 10% NaN3) and 50 μl detection solutions (20 μM mAb Alexa700-cAMP 1:1, and 48 μM Ruthenium-2-AHA-cAMP) and shaken for 2 h at room temperature. The time-resolved energy transfer is measured by a TRF reader (Evotec Technologies GmbH), equipped with a ND:YAG laser as excitation source. The plate is measured twice with the excitation at 355 nm and at the emission with a delay of 100 ns and a gate of 100 ns, total exposure time 10 s at 730 (bandwidth 30 nm) or 645 nm (bandwidth 75 nm), respectively.
(§2) EC50 values were determined using Activity Base analysis (ID Business Solution, Limited).

[2] = biological target: human CB1 receptors (Homo sapiens (Human), UniProt P21554); assay: functional cAMP assay, CB1; type: cell-based; conditions: CHO cells expressing human CB1
Description: as §1, §2

human CB2 receptors, sequence (P34972 whole entry): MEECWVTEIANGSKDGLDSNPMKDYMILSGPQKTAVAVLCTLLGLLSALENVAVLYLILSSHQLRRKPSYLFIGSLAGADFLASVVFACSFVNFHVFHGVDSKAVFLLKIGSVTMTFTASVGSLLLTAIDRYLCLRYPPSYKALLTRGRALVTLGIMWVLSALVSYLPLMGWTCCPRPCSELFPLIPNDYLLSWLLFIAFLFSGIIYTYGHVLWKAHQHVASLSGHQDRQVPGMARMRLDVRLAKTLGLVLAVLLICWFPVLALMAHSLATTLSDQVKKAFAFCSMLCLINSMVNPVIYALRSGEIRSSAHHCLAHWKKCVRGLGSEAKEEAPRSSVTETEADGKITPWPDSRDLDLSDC
human CB1 receptors, sequence (P21554 whole entry): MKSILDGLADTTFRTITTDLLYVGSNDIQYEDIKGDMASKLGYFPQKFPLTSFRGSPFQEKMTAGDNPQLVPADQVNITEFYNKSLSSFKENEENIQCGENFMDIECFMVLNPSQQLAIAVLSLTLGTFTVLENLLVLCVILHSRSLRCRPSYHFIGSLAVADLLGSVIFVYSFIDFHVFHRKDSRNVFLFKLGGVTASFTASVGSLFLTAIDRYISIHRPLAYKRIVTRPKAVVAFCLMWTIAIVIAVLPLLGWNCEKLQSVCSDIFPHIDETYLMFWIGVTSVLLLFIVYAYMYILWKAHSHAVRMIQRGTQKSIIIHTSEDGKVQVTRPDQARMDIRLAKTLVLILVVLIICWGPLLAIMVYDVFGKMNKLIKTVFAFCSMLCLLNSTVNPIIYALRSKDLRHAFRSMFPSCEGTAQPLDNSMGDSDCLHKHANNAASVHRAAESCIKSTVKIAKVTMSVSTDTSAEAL

Structure (SMILES): COc1ccc(Cn2cnc3c(N4CCC(F)(F)C4)nc(C(C)(C)C)nc32)cc1 [Example 20, 2-tert-butyl-6-(3,3-difluoropyrrolidin-1-yl)-9-[(4-methoxyphenyl)methyl]purine]
- EC50 [1]: 12.5 nM
- EC50 [2]: > 10000 nM

Structure (SMILES): CC(C)(C)c1nc(N2CCC(F)(F)C2)c2ncn(Cc3ncccc3Cl)c2n1 [Example 21, 2-tert-butyl-9-[(3-chloropyridin-2-yl)methyl]-6-(3,3-difluoropyrrolidin-1-yl)purine]
- EC50 [1]: 2.2 nM
- EC50 [2]: > 10000 nM

Structure (SMILES): CC(C)(C)c1nc(N2CCC(O)C2)c2ncn(Cc3ccccc3Cl)c2n1 (centres unmarked) [Example 22, 1-[2-tert-butyl-9-[(2-chlorophenyl)methyl]purin-6-yl]pyrrolidin-3-ol]
- EC50 [1]: 5.7 nM
- EC50 [2]: > 10000 nM

Structure (SMILES): CC(C)(C)c1nc(N2CCC(F)(F)C2)c2ncn(CCc3cccnc3)c2n1 [Example 23, 2-tert-butyl-6-(3,3-difluoropyrrolidin-1-yl)-9-(2-pyridin-3-ylethyl)purine]
- EC50 [1]: 4.4 nM
- EC50 [2]: > 10000 nM

Structure (SMILES): CC(C)(C)c1nc(N2CCC(F)(F)C2)c2ncn(CC(=O)c3ccccn3)c2n1 [Example 24, 2-[2-tert-butyl-6-(3,3-difluoropyrrolidin-1-yl)purin-9-yl]-1-pyridin-2-ylethanone]
- EC50 [1]: 69.2 nM
- EC50 [2]: > 10000 nM

Structure (SMILES): CC(C)(C)c1nc(N2CCC(O)C2)c2ncn(Cc3cccc(Cl)c3)c2n1 (centres unmarked) [Example 25, 1-[2-tert-butyl-9-[(3-chlorophenyl)methyl]purin-6-yl]pyrrolidin-3-ol]
- EC50 [1]: 58.8 nM
- EC50 [2]: > 10000 nM

Structure (SMILES): CC(C)(C)c1nc(N2CCC(F)(F)C2)c2ncn(C3CS(=O)(=O)C3)c2n1 [Example 27, 3-[2-tert-butyl-6-(3,3-difluoropyrrolidin-1-yl)purin-9-yl]thietane 1,1-dioxide]
- EC50 [1]: 14.1 nM
- EC50 [2]: > 10000 nM

Structure (SMILES): CC(C)(C)c1nc(N2CCC(O)C2)c2ncn(Cc3ccccc3C(F)(F)F)c2n1 (centres unmarked) [Example 28, 1-[2-tert-butyl-9-[[2-(trifluoromethyl)phenyl]methyl]purin-6-yl]pyrrolidin-3-ol]
- EC50 [1]: 1 nM
- EC50 [2]: > 10000 nM

Structure (SMILES): Cc1noc(Cn2cnc3c(N4CCC(O)C4)nc(C(C)(C)C)nc32)n1 (centres unmarked) [Example 29, 1-[2-tert-butyl-9-[(3-methyl-1,2,4-oxadiazol-5-yl)methyl]purin-6-yl]pyrrolidin-3-ol]
- EC50 [1]: 427 nM
- EC50 [2]: > 10000 nM

Structure (SMILES): Cn1nnnc1Cn1cnc2c(N3CCC(O)C3)nc(C(C)(C)C)nc21 (centres unmarked) [Example 30, 1-[2-tert-butyl-9-[(1-methyltetrazol-5-yl)methyl]purin-6-yl]pyrrolidin-3-ol]
- EC50 [1]: 301 nM
- EC50 [2]: > 10000 nM

Structure (SMILES): COc1ccc(Cn2cnc3c(N4CCC(O)C4)nc(C(C)(C)C)nc32)cc1 (centres unmarked) [Example 31, 1-[2-tert-butyl-9-[(4-methoxyphenyl)methyl]purin-6-yl]pyrrolidin-3-ol]
- EC50 [1]: 21.4 nM
- EC50 [2]: > 10000 nM

Structure (SMILES): CC(C)(C)c1nc(N2CCC(O)C2)c2ncn(Cc3ncccc3Cl)c2n1 (centres unmarked) [Example 32, 1-[2-tert-butyl-9-[(3-chloropyridin-2-yl)methyl]purin-6-yl]pyrrolidin-3-ol]
- EC50 [1]: 3.4 nM
- EC50 [2]: > 10000 nM

Structure (SMILES): CC(C)(C)c1nc(N2CCC(O)C2)c2ncn(Cc3cccnc3Cl)c2n1 (centres unmarked) [Example 33, 1-[2-tert-butyl-9-[(2-chloropyridin-3-yl)methyl]purin-6-yl]pyrrolidin-3-ol]
- EC50 [1]: 3.4 nM
- EC50 [2]: > 10000 nM

Structure (SMILES): CC(C)(C)c1nc(N2CCC(O)C2)c2ncn(Cc3ccccc3S(C)(=O)=O)c2n1 (centres unmarked) [Example 34, 1-[2-tert-butyl-9-[(2-methylsulfonylphenyl)methyl]purin-6-yl]pyrrolidin-3-ol]
- EC50 [1]: 9 nM
- EC50 [2]: > 10000 nM

Structure (SMILES): CCn1cnc2c(N3CCC(O)C3)nc(C(C)(C)C)nc21 (centres unmarked) [Example 35, 1-(2-tert-butyl-9-ethylpurin-6-yl)pyrrolidin-3-ol]
- EC50 [1]: 432 nM
- EC50 [2]: > 10000 nM

Structure (SMILES): COCCn1cnc2c(N3CCC(O)C3)nc(C(C)(C)C)nc21 (centres unmarked) [Example 37, 1-[2-tert-butyl-9-(2-methoxyethyl)purin-6-yl]pyrrolidin-3-ol]
- EC50 [1]: 274 nM
- EC50 [2]: > 10000 nM

Structure (SMILES): CC(C)(C)c1nc(N2CCC(O)C2)c2ncn(CCc3ccccc3)c2n1 (centres unmarked) [Example 38, 1-[2-tert-butyl-9-(2-phenylethyl)purin-6-yl]pyrrolidin-3-ol]
- EC50 [1]: 20.3 nM
- EC50 [2]: > 10000 nM

Structure (SMILES): Cc1ccc(Cn2cnc3c(N4CCC(O)C4)nc(C(C)(C)C)nc32)cc1 (centres unmarked) [Example 39, 1-[2-tert-butyl-9-[(4-methylphenyl)methyl]purin-6-yl]pyrrolidin-3-ol]
- EC50 [1]: 16.9 nM
- EC50 [2]: > 10000 nM

Structure (SMILES): CC(C)(C)c1nc(N2CCC(O)C2)c2ncn(CC3CCCCC3)c2n1 (centres unmarked) [Example 40, 1-[2-tert-butyl-9-(cyclohexylmethyl)purin-6-yl]pyrrolidin-3-ol]
- EC50 [1]: 71.2 nM
- EC50 [2]: > 10000 nM

Structure (SMILES): CC(C)(C)c1nc(N2CCC(O)C2)c2ncn(Cc3ccc(F)cc3Cl)c2n1 (centres unmarked) [Example 42, 1-[2-tert-butyl-9-[(2-chloro-4-fluorophenyl)methyl]purin-6-yl]pyrrolidin-3-ol]
- EC50 [1]: 3.7 nM
- EC50 [2]: > 10000 nM

Structure (SMILES): Cc1nonc1Cn1cnc2c(N3CCC(O)C3)nc(C(C)(C)C)nc21 (centres unmarked) [Example 43, 1-[2-tert-butyl-9-[(4-methyl-1,2,5-oxadiazol-3-yl)methyl]purin-6-yl]pyrrolidin-3-ol]
- EC50 [1]: 16.6 nM
- EC50 [2]: > 10000 nM

Structure (SMILES): CC(C)(C)c1nc(N2CCC(O)C2)c2ncn(Cc3c[nH]nc3C(F)(F)F)c2n1 (centres unmarked) [Example 44, 1-[2-tert-butyl-9-[[3-(trifluoromethyl)-1H-pyrazol-4-yl]methyl]purin-6-yl]pyrrolidin-3-ol]
- EC50 [1]: 14.8 nM
- EC50 [2]: > 10000 nM

Structure (SMILES): CC(C)(C)c1nc(N2CCC(O)C2)c2ncn(CCC(F)(F)F)c2n1 (centres unmarked) [Example 45, 1-[2-tert-butyl-9-(3,3,3-trifluoropropyl)purin-6-yl]pyrrolidin-3-ol]
- EC50 [1]: 49.6 nM
- EC50 [2]: > 10000 nM

Structure (SMILES): CC(C)(C)c1nc(N2CCC(O)C2)c2ncn(C3CCOC3)c2n1 (centres unmarked) [Example 46, 1-[2-tert-butyl-9-(oxolan-3-yl)purin-6-yl]pyrrolidin-3-ol]
- EC50 [1]: 139 nM
- EC50 [2]: > 10000 nM

Structure (SMILES): CC(C)(C)c1nc(N2CCC(O)C2)c2ncn(CC(=O)c3ccccc3Cl)c2n1 (centres unmarked) [Example 47, 2-[2-tert-butyl-6-(3-hydroxypyrrolidin-1-yl)purin-9-yl]-1-(2-chlorophenyl)ethanone]
- EC50 [1]: 102 nM
- EC50 [2]: > 10000 nM

Structure (SMILES): CC(=O)N[C@H]1CCN(c2nc(C(C)(C)C)nc3c2ncn3Cc2cccc(Cl)c2)C1 [Example 49, N—[(S)-1-[2-tert-butyl-9-[(3-chlorophenyl)methyl]purin-6-yl]pyrrolidin-3-yl]acetamide]
- EC50 [1]: 311 nM
- EC50 [2]: > 10000 nM

Structure (SMILES): CC(=O)N[C@H]1CCN(c2nc(C(C)(C)C)nc3c2ncn3Cc2ccc(Cl)cc2)C1 [Example 50, N—[(S)-1-[2-tert-butyl-9-[(4-chlorophenyl)methyl]purin-6-yl]pyrrolidin-3-yl]acetamide]
- EC50 [1]: 534 nM
- EC50 [2]: > 10000 nM

Structure (SMILES): CC(=O)N[C@H]1CCN(c2nc(C(C)(C)C)nc3c2ncn3Cc2ccccc2C(F)(F)F)C1 [Example 51, N—[(S)-1-[2-tert-butyl-9-[[2-(trifluoromethyl)phenyl]methyl]purin-6-yl]pyrrolidin-3-yl]acetamide]
- EC50 [1]: 64.7 nM
- EC50 [2]: > 10000 nM
